Source: publication PMC4850295, “Using a Genetically Encoded Sensor to Identify Inhibitors of Toxoplasma gondii Ca^2+ Signaling” (The Journal of Biological Chemistry, 2016)
Values joined by “and” are separate entries in the source; they are usually repeats but may differ in a detail not shown here. Identical values can stand only once.

These molecules were tested on T1, GCaMP5-expressing T. gondii. Settings: 100 uM zaprinast stimulation, 10 min pretreatment, mean of two replicates, 0.23 h, 10 µM.
T1 construct: whole extracellular parasites expressing GCaMP5 Ca2+ sensor
Set-up: species or system GCaMP5-expressing Toxoplasma gondii, extracellular; GCaMP5 fluorescence (cytosolic Ca2+) after 100 uM zaprinast in compound-pretreated extracellular parasites, background-subtracted, relative to zaprinast alone
Method in brief: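 Extracellular GCaMP5-expressing parasites in Ringer's solution were pretreated with compounds (single 10 μM dose, two biological replicates) for 10 min, then stimulated with 100 μM zaprinast at 37 °C for 4 min. Fluorescence read at 485/525 nm, basal subtracted, expressed as fold change relative to zaprinast-only parasites.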

Structure (SMILES)	fold change in fluorescence relative to zaprinast alone
CS(=O)(=O)CCNCc1ccc(-c2ccc3ncnc(Nc4ccc(OCc5ccccc5)c(Cl)c4)c3c2)o1 [GW574783B]	0.7755 and 0.8833
COC(=O)Nc1nc2cc(Oc3cccc(NC(=O)Nc4cc(C(F)(F)F)ccc4F)c3)ccc2[nH]1 [GW659386A]	1.116 and 1.187

Same assay, conditions: 100 uM zaprinast stimulation; 10 min pretreatment; mean of two replicates; 0.23 h

Structure (SMILES)	fold change in fluorescence relative to zaprinast alone
Fc1cc(Cl)ccc1Nc1ccnc2cc(-c3ccc(CN4CCOCC4)o3)ccc12 [GW560109X]	0.545
Fc1cc(Cl)ccc1Nc1ccnc2cc(-c3ccc(CN4CCCCC4)o3)ccc12 [GW560116X]	0.6823
N#Cc1ccc2c(-c3ccnc(NC4CC4)n3)c(-c3ccc(F)cc3)nn2c1 [GW561436X]	0.8796
CS(=O)(=O)CCNCc1coc(-c2ccc3ncnc(Nc4ccc(OCc5ccccc5)cc4)c3c2)c1 [GW566221B]	0.9966
CN1CCN(Cc2ccc(-c3ccc4c(Nc5ccc(Oc6ccccn6)cc5)ccnc4c3)o2)CC1 [GW567140X]	1.304
c1ccc(Oc2ccc(Nc3ccnc4cc(-c5ccc(CN6CCNCC6)o5)ccc34)cc2)nc1 [GW567142A]	0.8742
c1ccc(Oc2ccc(Nc3ccnc4cc(-c5ccc(CN6CCCCC6)o5)ccc34)cc2)nc1 [GW567143X]	0.8249
c1ccc(Oc2ccc(Nc3ccnc4cc(-c5ccc(CNCCN6CCOCC6)o5)ccc34)cc2)nc1 [GW567145X]	0.643
CN(C)Cc1ccc(-c2ccc3c(Nc4ccc(Oc5ccccn5)cc4)ccnc3c2)o1 [GW567148X]	1.129
Nc1nccc(-c2c(-c3ccc(F)cc3)nn3cc(C(F)(F)F)ccc23)n1 [GW568326X]	1.261
OCCCNc1nccc(-c2c(-c3ccc(F)cc3)nn3cc(C(F)(F)F)ccc23)n1 [GW569293X]	0.8575
CS(=O)(=O)CCNCc1nc(-c2ccc3ncnc(Nc4ccc(OCc5cccc(C(F)(F)F)c5)cc4)c3c2)cs1 [GW569530A]	1.148
CCN(CC)S(=O)(=O)c1ccc(OC)c(Nc2ncc(-c3ccccc3)o2)c1 [GW572401X]	1.034
N#Cc1c(NC(=O)c2ccccc2F)sc2c1CCCC2 [GW572738X]	1.241
CS(=O)(=O)CCNCc1ccc(-c2ccc3ncnc(Nc4ccc(OCc5ccccc5)c(C(F)(F)F)c4)c3c2)o1 [GW574782A]	0.7605
COc1ccc(Nc2ncc(-c3ccccc3)o2)cc1OC [GW575533A]	1.197
Cc1ccc(Nc2ccnc(Nc3cccc(C(N)=O)c3)n2)cc1O [GW575808A]	1.342
CS(=O)(=O)CCNCc1ccc(-c2ccc3ncnc(Nc4ccc(OCc5cccc(F)c5)c(C(F)(F)F)c4)c3c2)o1 [GW576484X]	0.5624
[O-][S+]1CCN(Cc2ccc(-c3ccc4ncnc(Nc5ccc(OCc6ccccc6)c(F)c5)c4c3)o2)CC1 [GW576924A]	0.1384
COc1ccccc1Nc1ncc(-c2ccccc2)o1 [GW577921A]	0.9668
CN1CCN(Cc2cccc(-c3ccc4c(Nc5ccc(Oc6ccccc6)cc5)ccnc4c3)c2)CC1 [GW578342X]	1.603

Structure (SMILES)	fold change in fluorescence relative to zaprinast alone
COc1cc(/C=N/Nc2ncnc3[nH]ncc23)ccc1O [GW578748X]	0.8277
Cc1ccc(Nc2ccnc(Nc3ccc4c(c3)CS(=O)(=O)C4)n2)cc1O [GW579362A]	1.38
CS(=O)(=O)CCNCc1ccc(-c2ccc3ncnc(Nc4ccc(OCc5ccccc5)c(Br)c4)c3c2)o1 [GW580496A]	1.191
CCS(=O)(=O)c1ccc(OC)c(Nc2ncc(-c3cccc(OC)c3)o2)c1 [GW580509X]	1.14
NC(=O)c1ccc2c(-c3ccnc(NCCCO)n3)c(-c3ccc(F)cc3)nn2c1 [GW581744X]	0.8342
Cc1ccc(Nc2ccnc(Nc3ccc(C)c(F)c3)n2)cc1O [GW582868A]	1.057
[O-][S+]1CCN(Cc2ccc(-c3ccc4ncnc(Nc5ccc(OCc6ccccc6)c(Cl)c5)c4c3)o2)CC1 [GW583373A]	0.2727
NS(=O)(=O)c1ccc(NC=C2C(=O)Nc3ccc4ncsc4c32)cc1 [GW589933X]	1.196
COC(=O)Nc1nc2ccc(Oc3ccc(NC(=O)Nc4cccc(Cl)c4)cc3)cc2[nH]1 [GW589961A]	1.185
CCS(=O)(=O)c1ccc(OC)c(Nc2ncc(-c3ccc(F)cc3)o2)c1 [GW591947A]	1.203
COc1ccc(NC(=O)c2ccc(-c3cc(-c4nnc(C)o4)ccc3C)cc2)cc1 [GW595885X]	1.221
FC(F)(F)c1ccc(-c2cc(-c3cn[nH]c3-c3ccccn3)ccn2)cc1 [GW599550X]	1.459
Cc1nnc(-c2ccc(C)c(-c3ccc(C(=O)Nc4cccc(C#N)c4)cc3)c2)o1 [GW607117X]	1.107
Cc1nnc(-c2ccc(C)c(-c3ccc(C(=O)O)cc3)c2)o1 [GW608005X]	1.249
COc1cc(Nc2nccc(Nc3ccc4c(C)n[nH]c4c3)n2)cc(OC)c1OC [GW612286X]	0.875
O=S(=O)(CCOCc1ccc(-c2ccc3ncnc(Nc4ccc(OCc5cccc(F)c5)c(Cl)c4)c3c2)o1)c1ccccc1 [GW615311X]	1.258
CS(=O)(=O)CCN(CC#N)Cc1ccc(-c2ccc3ncnc(Nc4ccc(OCc5cccc(F)c5)c(Cl)c4)c3c2)o1 [GW616030X]	1.169
CCS(=O)(=O)c1ccc(OC)c(Nc2ncc(-c3cccc(C(C)=O)c3)o2)c1 [GW621431X]	1.216
CN1CCN(CCCNc2nccc(-c3c(-c4ccc(F)cc4)nn4cc(C(F)(F)F)ccc34)n2)CC1 [GW621581X]	0.8628
CCCN(CCS(C)(=O)=O)Cc1ccc(-c2ccc3ncnc(Nc4ccc(OCc5cccc(F)c5)c(Cl)c4)c3c2)o1 [GW621823A]	0.6108
CN1CCN(CCCNc2nccc(-c3c(-c4ccc(F)cc4)nn4cc(C(N)=O)ccc34)n2)CC1 [GW622475X]	0.5684

Structure (SMILES)	fold change in fluorescence relative to zaprinast alone
COc1cc(Nc2ncc(-c3ccccc3)o2)cc(OC)c1OC [GW627512B]	0.9208
OCCCNc1nccc(-c2c(-c3cccc(C(F)(F)F)c3)nn3cc(C(F)(F)F)ccc23)n1 [GW630813X]	1.109
Cc1cccc(Nc2ncc(-c3ccccc3)o2)c1 [GW632046X]	1.202
COc1ccc(COc2ccc(Cc3cnc(N)nc3N)cc2OC)cc1 [GW632580X]	1.155
O=S(=O)(CCNCc1ccc(-c2ccc3ncnc(Nc4ccc(OCc5cccc(F)c5)c(Cl)c4)c3c2)o1)c1ccccc1 [GW633459A]	1.016
CC(C)S(=O)(=O)N1CCN(Cc2ccc3c(c2)nc(NC(=O)c2ccsc2)n3C[C@H](O)c2ccccc2)CC1 [GW635815X]	1.196
N#CCc1ccc(Nc2nccc(Nc3ccc(Oc4ccccc4)cc3)n2)cc1 [GW639905A]	1.192
COc1ccc(-c2cc3c(N)ncnc3o2)cc1 [GW642138X]	1.142
COc1cc(C=NNc2ncnc3c2cnn3Cc2ccccc2)ccc1O [GW643971X]	1.09
Fc1cccc(COc2ccc(Nc3ncncc3C#Cc3ccccc3)cc2Cl)c1 [GW651576X]	1.149
COC(=O)Nc1nc2ccc(Oc3ccc(NC(=O)Nc4cc(C(F)(F)F)ccc4F)cc3)cc2[nH]1 [GW654607A]	1.325
NC(=O)c1cccc(Nc2nccc(Nc3ccc(Oc4c(Cl)cccc4Cl)c(Cl)c3)n2)c1 [GW659009A]	1.248
Nc1ccc(C#Cc2cncnc2Nc2ccc(OCc3cccc(F)c3)c(Cl)c2)cc1 [GW659893X]	0.972
O=C(NCCCN1CCOCC1)c1cccc(Nc2nccc(Nc3ccc(Oc4ccccc4)cc3)n2)c1 [GW663929X]	1.429
N#Cc1cnc2cc(-c3cnc(CNCCN4CCOCC4)s3)ccc2c1Nc1ccc(Oc2ccccc2)cc1 [GW664114X]	1.528
CCc1cccc(NC(=O)Nc2ccc(Oc3ccc4nc(NC(=O)OC)[nH]c4c3)cc2)c1 [GW673715X]	1.098
CCS(=O)(=O)c1ccc(OC)c(Nc2ncc(-c3cccc(-c4ccccc4F)c3)o2)c1 [GW678313X]	1.071
Cc1cccc(-c2cc(-c3cn[nH]c3-c3ccccn3)ccn2)c1 [GW679395X]	0.9312
FC(F)(F)c1ccccc1-c1cc(-c2cn[nH]c2-c2ccccn2)ccn1 [GW679396X]	0.8259
Cc1ccccc1-c1cc(-c2cn[nH]c2-c2ccccn2)ccn1 [GW680061X]	0.8106

Same assay, conditions: 0.23 h, 10 µM

Structure (SMILES)	% of control remaining
NS(=O)(=O)c1ccc(Nc2ncc(-c3ccccc3)o2)cc1 [GW572399X]	1.225
COc1cc(/C=N/Nc2ncnc3c2cnn3C(C)C)ccc1O [GW644007X]	1.177
